Literature values in US11045444B2, “Composition and method for promoting eyelash and eyebrow growth exclusively containing naturally sourced ingredients” (Plume Cosmetics Inc., priority 2016, dated 2021).

SMILES: C=C[C@@]1(C)CC(=O)[C@]2(O)[C@@]3(C)[C@@H](O)CCC(C)(C)[C@@H]3[C@H](O)[C@H](OC(C)=O)[C@@]2(C)O1 [forskolin]
- solubility in water: approximately 0.001%
